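Method: 48-hour compound exposure of cells in 96-well plates, five concentrations, linear interpolation of endpoints. GI50 = concentration required for 50% inhibition of growth. TGI: total growth inhibition.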
What was measured:
Assay in all cases: inhibition of tumour cell growth, NCI panel, 48 h
COLO 205 colon = system: COLO 205 colon
HL-60(TB) leukemia = system: HL-60(TB) leukemia
OVCAR-3 ovarian = system: OVCAR-3 ovarian
SF-539 CNS = system: SF-539 CNS
SK-MEL-28 melanoma = system: SK-MEL-28 melanoma
SN12C renal = system: SN12C renal
SNB-19 CNS = system: SNB-19 CNS
SW-620 colon = system: SW-620 colon
TK-10 renal = system: TK-10 renal
A498 renal = system: A498 renal

Compound | TGI (COLO 205 colon) [µM] | TGI (HL-60(TB) leukemia) [µM] | TGI (OVCAR-3 ovarian) [µM] | TGI (SF-539 CNS) [µM] | TGI (SK-MEL-28 melanoma) [µM] | TGI (SN12C renal) [µM] | TGI (SNB-19 CNS) [µM] | TGI (SW-620 colon) [µM] | TGI (TK-10 renal) [µM] | GI50 (A498 renal) [µM] | TGI (A498 renal) [µM] | GI50 (COLO 205 colon) [µM] | GI50 (OVCAR-3 ovarian) [µM] | GI50 (SF-539 CNS) [µM] | GI50 (SK-MEL-28 melanoma) [µM] | GI50 (SN12C renal) [µM] | GI50 (SNB-19 CNS) [µM] | GI50 (SW-620 colon) [µM] | GI50 (TK-10 renal) [µM] | GI50 (HL-60(TB) leukemia) [µM]
CCCCCCCCCC(=O)CC(=O)c1ccc(O)cc1O | > 100 | 53.9 | 45 | 96.5 | > 100 | 74.4 | > 100 | > 100 | > 100 | – | – | – | – | – | – | – | – | – | – | –
O=S(=O)([O-])c1cccc2cccc(N=Cc3ccccc3[O-])c12.O=S(=O)([O-])c1cccc2cccc(N=Cc3ccccc3[O-])c12.[O]=[U]=[O] | > 100 | – | > 100 | > 100 | > 100 | > 100 | > 100 | > 100 | 67.3 | > 100 | > 100 | 64.8 | > 100 | 36.3 | > 100 | > 100 | 45.6 | 42.1 | 21.3 | –
COc1cc2oc(=O)ccc2cc1C1OC(=O)C2OC21C (configuration not stated) | > 100 | > 100 | > 100 | > 100 | > 100 | > 100 | > 100 | > 100 | > 100 | – | – | – | – | – | – | – | – | – | – | –
OCCCCC#Cc1ccccc1C#Cc1ccccc1 | 36.3 | – | – | 24.1 | 41.6 | 27.8 | 37.2 | 34.4 | 26.3 | – | – | 12.9 | – | 10.8 | 17 | 13.5 | 0.153 | 15.7 | 13.2 | –
CC[C@]1(O)CC2CN(CCc3c([nH]c4ccccc34)[C@@](C(=O)OC)(c3cc4c(cc3OC)N(C)[C@H]3[C@@](O)(C(=O)OC)[C@H](OC(C)=O)[C@]5(CC)C=CCN6CC[C@]43[C@@H]65)C2)C1 (some centres not stated) | 0.00511 | < 0.005 | < 0.005 | 0.293 | – | > 37.3 | 15.6 | 8.54 | 13.9 | 0.00547 | 0.0994 | < 0.005 | < 0.005 | < 0.005 | – | < 0.005 | < 0.005 | < 0.005 | 0.148 | < 0.005
O=C(O)CNc1c2ccccc2nc2ccccc12 | > 100 | > 100 | > 100 | > 100 | > 100 | > 100 | > 100 | > 100 | > 100 | – | – | – | – | – | – | – | – | – | – | –
COc1ccc(/C=C/C(=O)c2cc3c(N)c(C(=O)Nc4ccccc4Cl)sc3nc2C)cc1 | > 50 | > 50 | 16.3 | 9.45 | – | > 50 | 23.1 | > 50 | 30.5 | 0.866 | 4.51 | 17.2 | 2.11 | 2.04 | – | 3.78 | 3.8 | 3.39 | 2.64 | 1.74
N#CC(NNC(=O)c1ccccc1O)c1ccc(O)cc1 (configuration not stated) | > 100 | 74.9 | 74 | > 100 | > 100 | > 100 | – | > 100 | > 100 | – | – | – | – | – | – | – | – | – | – | –
CCCN(CCCCC(NC(C)=O)C(=O)NCc1ccccc1)C(=O)NCCCl (configuration not stated) | > 100 | > 100 | > 100 | > 100 | > 100 | > 100 | > 100 | > 100 | > 100 | – | – | – | – | – | – | – | – | – | – | –
